Assay results: publication PMC5890784, “Total chemical synthesis of glycocin F and analogues: S-glycosylation confers improved antimicrobial activity” (Chemical Science, 2018)
Bridges are numbered along the chain shown (N, C = ends). The star is where a group is joined. βGlcNAc = CC(=O)N[C@@H]1[C@@H](O)[C@H](O)[C@@H](CO)O[C@H]1*

System: Lactobacillus plantarum ATCC 8014
Assay type: cell-based
Details: for IC50: liquid culture in MRS broth, 96-well plate, triplicate, start OD 0.05, 30 °C, 12-15 h, absorbance 600 nm, error = maximum variance across triplicates
Description: To evaluate the antibacterial activity of synthetic glycocin F (1b), [^27D-His]-GccF (1a) and glyco-mutants 10 and 11, the IC50 values against Lactobacillus plantarum ATCC 8014 were measured using a liquid culture assay. Synthetic GccF (1b) was used as the positive control (Table 1).
The glycopeptides were assayed for activity against Lactobacillus plantarum strain 8014, using a 96-well plate reader. Serial dilutions of the compound to be tested were prepared in MRS broth (Merck) and was added, in triplicate, to a 96-well plate containing an equal volume of L. plantarum 8014 at optical density 0.05. Additional positive controls (cells with no treatment) and negative controls (MRS media with no cells) were included, also in triplicate. Cells were grown in a Multiskan GO plate reader (Thermo Scientific) for 12-15 h, at 30 °C, and absorbance measured at 600 nm every 15 min. The growth of cells in each peptide concentration was modelled against the internal positive control, and the percentage inhibition derived at each time point as the difference between the optical density of the positive control and the optical density of cells within a given peptide concentration. Taking the maximum point from plots of percentage inhibition versus time for each peptide concentration allowed a polynom ial fit to be applied, and the concentration required to reach 50% inhibition derived.
Statistical error was taken as the maximum variance across the triplicates of each concentration in a […]
Figure 44. Th e results from testin g the bacterially-isola ted GccF, synthetic GccF (1b) and analo gues 1a, 10, and 11, plott ed as perc entage in hibit ion of Lact oba cillus plantarum ATCC 8014 gro wth vs concentra tion of the […]
(1 picture or pasted object on this page, not shown here)

[1] = from IC50 values, relative to IC50 1.13 nM

| Substance | IC50 [nM] | further results |
| --- | --- | --- |
| H-KPAWCWYTLAMCGAGYDC(βGlcNAc)GTCDYMYSHCFGIKHHSSGSSSYHC(βGlcNAc)-OH (disulfide 5-28, 12-21) [Compound 11] |  | increase in activity relative to the native glycopeptide (fold) [1]: approximately 2 fold |
| H-KPAWCWYTLAMCGAGYDS(βGlcNAc)GTCDYMYSHCFGIKHHSSGSSSYHC(βGlcNAc)-OH (disulfide 5-28, 12-21) [Compound 1b, glycocin F] | 1.13 ± 0.2 |  |
| H-KPAWCWYTLAMCGAGYDS(βGlcNAc)GTCDYMYSHCFGIKHHSSGSSSYHC(βGlcNAc)-OH (disulfide 5-28, 12-21) [Native, glycocin F] | 2 ± 0.2 |  |
| H-KPAWCWYTLAMCGAGYDS(βGlcNAc)GTCDYMYSHCFGIKHHSSGSSSYHS(βGlcNAc)-OH (disulfide 5-28, 12-21) [Compound 10] |  | decrease in activity compared to native glycocin F (fold) [1]: approximately 10 fold |
